Assay: Stability of compound A alone in a solid state to temperature, humidity
Type: physicochemical

stability to temperature, humidity and the like: stable
SMILES: CONC(=O)Nc1ccc(-c2sc3c(c2CN(C)C)c(=O)n(-c2ccc(OC)nn2)c(=O)n3Cc2c(F)cccc2F)cc1 [compound A, N-(4-(1-(2,6-difluorobenzyl)-5-((dimethylamino)methyl)-3-(6-methoxy-3-pyridazinyl)-2,4-dioxo-1,2,3,4-tetrahydrothieno[2,3-d]pyrimidin-6-yl)phenyl)-N′-methoxyurea]
